Measured values reported in paper PMC7906334, “The cell surface protein MUL_3720 confers binding of the skin pathogen Mycobacterium ulcerans to sulfated glycans and keratin” (PLoS Neglected Tropical Diseases, 2021).

Tests used:
MUL_3720 [1] = target: T1, MUL_3720 (Mycobacterium ulcerans, UniProt A0PU23); assay: glycan array (fluorescence); assay type: binding; settings: glycan printed on slide via spacer; 1 mM CaCl2 and 1 mM MgCl2 PBS printed for the cell arrays
T1 construct: full length aa 1-207 in pET28a, recombinant, purified; 22 kDa; the MUL_ locus tags are those of strain Agy99
Description: glycan array (fluorescence) on MUL_3720

MUL_3720 [2] = target: T1, MUL_3720; assay: SPR (Biacore T200); assay type: binding; settings: read-out: MUL_3720; protein amine-immobilised on CM5 chip, free glycan as analyte
[3] = target: MUL_3720 (Mycobacterium ulcerans) (UniProt A0PU23); assay: SPR; Biacore T200; MUL_3720 immobilised on a CM5 chip at pH 4.5 (5 uL/min, 600 s), ethanolamine blank flow cell as control; keratin extract flowed between 2 nM and 20 uM; double reference subtracted

Compound	fold change in fluorescence binding signal (MUL_3720 [1]) [fold]	also measured
3,6-O-Su2-Galβ1-4(6-O-Su)GlcNAcβ-sp2 [compound 189]	2.46±0.56	–
3,6-O-Su2-Galβ1-4GlcNAcβ-sp2 [compound 182]	3.29±1.77	–
4,6-O-Su2-GalNAcβ1-4-(3-O-Ac)GlcNAcβ-sp3 [compound 199]	2.45±0.87	–
6-O-Su-Galβ1-3(6-O-Su)GlcNAcβ-sp2 [compound 179]	1.48±0.33	–
6-O-Su-Galβ1-3GalNAcα-sp3 [compound 151]	2.44±0.88	–
6-O-Su-Galβ1-3GlcNAcβ-sp3 [compound 161]	2.49±0.26	–
CC(=O)N[C@H]1C(O)O[C@H](CO)[C@@H](O[C@@H]2O[C@@H](C)[C@@H](O)[C@@H](O)[C@@H]2O)[C@@H]1O[C@@H]1O[C@H](CO)[C@H](O)[C@H](OS(=O)(=O)O)[C@H]1O[C@@H]1O[C@@H](C)[C@@H](O)[C@@H](O)[C@@H]1O (stereo partly shown) [Fucα1-2(3-O-Su)Galβ1-3(Fucα1–4)GlcNAc]	–	Kd (MUL_3720 [2]): 17400 ± 1900 nM
CC(=O)N[C@H]1C(O)O[C@H](COS(=O)(=O)O)[C@H](O)[C@@H]1O[C@@H]1OC(C(=O)O)=C[C@H](O)[C@H]1O (stereo partly drawn) [chondroitin 6S-disaccharide ΔUAα 1-3GalNAc-6S]	–	Kd (MUL_3720 [2]): 99.2 ± 35 nM
CC(=O)N[C@H]1[C@H](OCCCN)O[C@H](CO)[C@@H](O[C@@H]2O[C@H](CO)[C@H](OS(=O)(=O)O)[C@H](OS(=O)(=O)O)[C@H]2O)[C@@H]1O [compound 201, 3,4-O-Su2-Galβ1-4GlcNAcβ-sp3]	1.52±0.64	–
keratin isolated from human epidermis (mixed keratins with average molecular weight of 64.1 kDa)	–	Kd [3]: 4.78 nM
